Laboratory results published in US20260216158A1, “OCULAR IMPLANT CONTAINING A TYROSINE KINASE INHIBITOR” (OCULAR THERAPEUTIX, INC., priority 2023, published 2026).
Converted amounts (≈) assume the structure as drawn. “And” between values parts separate entries of the source, which are not always exact repeats. Equal entries are not always repeated. Blank lines part the entries; values can stand above or below the compound they belong to.

What was measured:
[1] = Stability studies of axitinib co-crystals (Example 4.4); format: physicochemical
From the text: The results are also depicted in Table 8.

[2] = Solubility of axitinib prodrugs in PBS, 24 h at 22° C., HPLC (Example 6.2); format: physicochemical; conditions: for Mean Solubility / solubility at 24 h: PBS pH 7.2 to 7.4, 24 hours incubation at 22° C.; for solubility at 24 h / Obtained Conc. (replicate): PBS; for solubility at 24 h: 22 °C, pH 7.2, aqueous buffer, thermodynamic from solid; for Obtained Conc. (replicate): 24 h at 22° C., after dilution factor, replicates R1, R2
Description: • PBS, pH 7.2 • 24 h at 22° C. with continuous shaking • Solubility of test item was determined by HPLC analysis with calibration curve

[3] = as above; format: physicochemical; conditions: pH 7.4, replicates R1, R2
[4] = PBS pH 7.4, 37° C.
[5] = Stability of axitinib polymorph IV in an implant throughout 6 months (Example 11); format: physicochemical
[6] = Solubility of axitinib free base polymorphs (SAB-I, Polymorph IV) in PBS (Example 6.1); conditions: for Solubility in PBS, Day 1 / Solubility in PBS, Day2 / Solubility in PBS, Day 5 / Solubility in PBS, Day 6 / Solubility in PBS, Day 8 / Equilibrium solubility in PBS, Average (Days 5-8): 37° C., pH 7.2 to 7.4; for Solubility in PBS, Day2: day 2; for Equilibrium solubility in PBS, Average (Days 5-8): average of days 5, 6 and 8, UPLC
Solubility of axitinib = format: physicochemical; conditions: PBS, 37 °C, pH 7.2, aqueous buffer, thermodynamic from solid; read-out: Solubility in PBS pH 7.2-7.4 (37° C., 5 days)
physchem [7] = conditions: PBS, 37 °C, pH 7.4, aqueous buffer, thermodynamic from solid
physchem [8] = conditions: aqueous with cosolvent or surfactant or cyclodextrin
[9] = NHP study: bioanalysis of axitinib in plasma; format: in vivo, Cynomolgus monkeys; conditions: at sacrifice time points, LLOQ 0.100 ng/mL
[10] = cited from earlier work
[11] = axitinib: Rugo et al. 2005; ranibizumab, aflibercept: in the human eye; cited from earlier work
[12] = test system: VEGF-induced retinal vascular leakage; experiment: VEGF challenge study, leakage score over time (Example 14); format: in vivo, Dutch Belted rabbit; conditions: fluorescein angiography, 0 no leakage, 4 no inhibition of leakage
retinal vessel leakage = experiment: In vivo VEGF challenge study, leakage by fluorescein angiography; conditions: rabbit VEGF challenge, scale 0 to 4
From the text: The scoring criteria is based on Table 37B.

[13] = listed as Polymorph IV micronized

solubility at 24 h [2]: 6.16 µg/mL (≈ 10.4 µM) | Conc. (replicate) [3]: 6179 ng/mL and 6146 ng/mL
Compound: CNC(=O)c1ccccc1Sc1ccc2c(/C=C/c3ccccn3)nn(COC(=O)CCOCCOCCOC)c2c1 [Axitinib N-m(PEG)3-oxymethyl Prodrug, 3-[2-(2-Methoxy-ethoxy)-ethoxy]-propionic acid 6-(2-methylcarbamoyl-phenylsulfanyl)-3-((E)-2-pyridin-2-yl-vinyl)-indazol-1-ylmethyl ester]

solubility at 24 h [2]: 99.4 µg/mL (≈ 157 µM) | Obtained Conc. (replicate) [2]: 100.16 µg/mL and 98.58 µg/mL
Compound: CNC(=O)c1ccccc1Sc1ccc2c(/C=C/c3ccccn3)nn(COC(=O)CCOCCOCCOCCOC)c2c1 [Axitinib N-m(PEG)4-oxymethyl Prodrug]

chemical and physical stability in an implant [5]: chemically and physically stable
Compound: CNC(=O)c1ccccc1Sc1ccc2c(/C=C/c3ccccn3)n[nH]c2c1 [Polymorph IV, axitinib]

Solubility in PBS, Day 1 [6]: 0.236 µg/mL (≈ 0.611 µM) | Solubility in PBS, Day2 [6]: 0.265 µg/mL (≈ 0.686 µM) | Solubility in PBS, Day 5 [6]: 0.216 µg/mL (≈ 0.559 µM) | Solubility in PBS, Day 6 [6]: 0.226 µg/mL (≈ 0.585 µM) | Solubility in PBS, Day 8 [6]: 0.237 µg/mL (≈ 0.613 µM)
Compound: CNC(=O)c1ccccc1Sc1ccc2c(/C=C/c3ccccn3)n[nH]c2c1 [SAB-I micronized]

Solubility in PBS, Day 1 [6]: 0.153 µg/mL (≈ 0.396 µM) | Solubility in PBS, Day2 [6]: 0.228 µg/mL (≈ 0.59 µM) | Solubility in PBS, Day 5 [6]: 0.190 µg/mL (≈ 0.492 µM) | Solubility in PBS, Day 6 [6]: 0.194 µg/mL (≈ 0.502 µM) | Solubility in PBS, Day 8 [6]: 0.188 µg/mL (≈ 0.486 µM)
Compound: CNC(=O)c1ccccc1Sc1ccc2c(/C=C/c3ccccn3)n[nH]c2c1 [SAB-I non-micronized]

Solubility in PBS, Day 1 [6]: 0.246 µg/mL (≈ 0.637 µM) | Solubility in PBS, Day2 [6]: 0.277 µg/mL (≈ 0.717 µM) | Solubility in PBS, Day 5 [6]: 0.256 µg/mL (≈ 0.662 µM) | Solubility in PBS, Day 6 [6]: 0.253 µg/mL (≈ 0.655 µM) | Solubility in PBS, Day 8 [6]: 0.247 µg/mL (≈ 0.639 µM)
Compound: CNC(=O)c1ccccc1Sc1ccc2c(/C=C/c3ccccn3)n[nH]c2c1 [SAB-I super-micronized]

solubility at 5 days (Solubility of axitinib): 0.2 µg/mL (≈ 0.517 µM)
Compound: CNC(=O)c1ccccc1Sc1ccc2c(/C=C/c3ccccn3)n[nH]c2c1 [SAB-I, axitinib]

Equilibrium solubility in PBS, Average (Days 5-8) [6]: about 0.435 μg/mL | Equilibrium solubility in PBS, Average (Days 5-8) [6, 13]: 0.435 µg/mL | Solubility in PBS, Day 1 [6, 13]: 0.678 µg/mL (≈ 1.75 µM) | Solubility in PBS, Day2 [6, 13]: 0.479 µg/mL (≈ 1.24 µM) | Solubility in PBS, Day 5 [6, 13]: 0.413 µg/mL (≈ 1.07 µM) | Solubility in PBS, Day 6 [6, 13]: 0.443 µg/mL (≈ 1.15 µM) | Solubility in PBS, Day 8 [6, 13]: 0.449 µg/mL (≈ 1.16 µM)
Compound: CNC(=O)c1ccccc1Sc1ccc2c(/C=C/c3ccccn3)n[nH]c2c1 [axitinib polymorph IV]

solubility thermodynamic at 5 days (physchem [7]): ~0.223 µg/mL (≈ 0.577 µM) | solubility (physchem [8]; solubility in 25%/75% (v/v) ethanol/water): 13.4 µg/mL (≈ 34.7 µM) | solubility in PBS ([6]; PBS pH 7.2 to 7.4, 37° C., after five days of incubation): less than 0.3 μg/mL
Compound: CNC(=O)c1ccccc1Sc1ccc2c(/C=C/c3ccccn3)n[nH]c2c1 [axitinib polymorph SAB-I]

solubility (physchem [8]; mean solubility value in 25%/75% (v/v) ethanol/water): 18.3 µg/mL (≈ 47.4 µM)
Compound: CNC(=O)c1ccccc1Sc1ccc2c(/C=C/c3ccccn3)n[nH]c2c1 [axitinib, N-methyl-2-[3-((E)-2-pyridin-2-yl-vinyl)-1H-indazol-6-ylsulfanyl]-benzamide]
Axitinib concentrations in plasma [9]: No measurable amount of axitinib was detected | vitreous half-life [10]: 2 h | clearance half-life (t1/2) [11]: a few hours

HPLC Purity after stability studies 25° C./60% RH [1]: 99.60 | HPLC Purity after stability studies 40° C./75% RH [1]: 99.64 | HPLC Purity after stability studies 80° C. [1]: 99.47 | Stability-3 days slurry in H2O (25° C.) and 4 days drying at 32° C./0% RH, HPLC [1]: 99.76
Compound: Fumaric Acid

Continued, compound first:

Compound: O=C(O)[C@H](O)[C@@H](O)C(=O)O [(+)-L-Tartaric acid]
HPLC Purity after stability studies 25° C./60% RH [1]: 96.66 | HPLC Purity after stability studies 40° C./75% RH [1]: 96.24 | HPLC Purity after stability studies 80° C. [1]: 93.24 | Stability-3 days slurry in H2O (25° C.) and 4 days drying at 32° C./0% RH, HPLC [1]: 97.50

Compound: CNC(=O)c1ccccc1Sc1ccc2c(/C=C/c3ccccn3)nn(COC(=O)CCC(=O)O)c2c1 [Axitinib N-Succinoyloxymethyl Prodrug]
Mean Solubility [2]: 217.44 µg/mL | solubility at 24 h [2]: 217 µg/mL (≈ 421 µM) | Obtained Conc. (replicate) [2]: 222.06 µg/mL and 212.82 µg/mL

Compound: CNC(=O)c1ccccc1Sc1ccc2c(/C=C/c3ccccn3)nn(COC(=O)CCOC)c2c1 [Axitinib N-m(PEG)1-oxymethyl Prodrug, 3-Methoxy-propionic acid 6-(2-methylcarbamoyl-phenylsulfanyl)-3-((E)-2-pyridin-2-yl-vinyl)-indazol-1-ylmethyl ester]
Mean Solubility [2]: Not soluble | Conc. (replicate) [3]: BLOQ (“BLOQ” means “below limit of quantification”. i.e., <0.781 μg/mL)

Compound: CNC(=O)c1ccccc1Sc1ccc2c(/C=C/c3ccccn3)nn(COC(=O)CCOCCOC)c2c1 [Axitinib N-m(PEG)2-oxymethyl Prodrug, 3-(2-Methoxy-ethoxy)-propionic acid 6-(2-methylcarbamoyl-phenylsulfanyl)-3-((E)-2-pyridin-2-yl-vinyl)-indazol-1-ylmethylester]
solubility at 24 h [2]: 1.1 µg/mL (≈ 2.01 µM) | Conc. (replicate) [3]: 1112 ng/mL and 1086 ng/mL

Compound: O=C(O)CCCC(=O)O [Glutaric acid]
HPLC Purity after stability studies 25° C./60% RH [1]: 90.81 | HPLC Purity after stability studies 40° C./75% RH [1]: 99.31 | HPLC Purity after stability studies 80° C. [1]: 99.44 | Stability-3 days slurry in H2O (25° C.) and 4 days drying at 32° C./0% RH, HPLC [1]: 99.80 | Thermodynamic solubility in PBS, pH 7.4 at 37° C., 2 hours ([4]; 2 hours): LOD | Thermodynamic solubility in PBS, pH 7.4 at 37° C., 4 hours ([4]; 4 hours): LOD | Thermodynamic solubility in PBS, pH 7.4 at 37° C., 24 hours ([4]; 24 hours): LOD

Compound: Bevacizumab: Avastin (bevacizumab), comparator in the VEGF challenge study
Leakage Scores (average) ([12]; Day 7): 0.0 | Leakage Scores (average) ([12]; Day 17): 0.0 | Leakage Scores (average) ([12]; Day 31): 0.0 | Leakage Scores (average) ([12]; Day 45): 1.0 | Leakage Scores (average) ([12]; Day 59): 3.1 | Leakage Scores (average) ([12]; Day 73): 3.7 | leakage score (mean) (retinal vessel leakage; after 60 days, untreated eyes 3.2): 3.1 | leakage score (mean) (retinal vessel leakage; going further beyond 60 days): 3.7 | leakage score (mean) (retinal vessel leakage; up to 31 days): 0.0

Compound: Citric Acid
HPLC Purity after stability studies 25° C./60% RH [1]: 90.78 | HPLC Purity after stability studies 40° C./75% RH [1]: 93.23 | HPLC Purity after stability studies 80° C. [1]: 86.88 | Stability-3 days slurry in H2O (25° C.) and 4 days drying at 32° C./0% RH, HPLC [1]: 96.24

Compound: aflibercept: anti-VEGF agent, aflibercept intravitreal injection by Regeneron
clearance half-life (t1/2) [11]: several days

Compound: ranibizumab: anti-VEGF agent, ranibizumab injection by Genentech
clearance half-life (t1/2) [11]: several days
